Patent publication US20220370416A1, “COMPOUNDS AND METHODS FOR TARGETED DEGRADATION OF KRAS” (Arvinas Operations, Inc., priority 2020, published 2022)

Target: HiBit-KRAS^G12C (Homo sapiens, UniProt P01116, G12C)
Assay: HiBit degradation assay in SW1573 HiBit-KRas^G12C cells
Assay type: cell-based
Design: expressed in transfected cells; host or cells: SW1573 (clone E6), modified pcDNA3.1 vector, TK promoter
Settings: 0.1% DMSO, 24 hours; for DC50: SW1573 HiBit-KRas^G12C, read-out: KRas^G12C-HIBit (SW1573; 0.1% DMSO) DC50*
In short: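 SW1573 cells stably expressing N-terminally HiBit-tagged KRAS G12C, under the TK promoter, were treated 24 h at 37 °C with 10 μM to 20 nM compound in 0.1% or 0.5% DMSO. Residual HiBit luminescence normalised to DMSO and fitted with a 4-parameter model for DC50 and Dmax. Points with ≥50% viability loss (alamar blue) excluded.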

Sequence of HiBit-KRAS^G12C (P01116 1-186 isoform P01116-2 G12C limits assumed): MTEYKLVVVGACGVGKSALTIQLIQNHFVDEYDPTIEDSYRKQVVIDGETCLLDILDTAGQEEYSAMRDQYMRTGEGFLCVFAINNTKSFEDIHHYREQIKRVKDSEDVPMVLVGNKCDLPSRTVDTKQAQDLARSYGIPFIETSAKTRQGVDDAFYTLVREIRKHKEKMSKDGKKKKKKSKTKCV

DC50	Dmax (SW1573, SW1573 HiBit-KRas^G12C, read-out: KRas^G12C-HiBit (SW1573; 0.1% DMSO) Dmax**)	Structure (SMILES)
> 1000 nM		C=CC(=O)N1CCN(c2nc(O[C@H](C)CN3CCC(OCCOc4cc(-c5scnc5C)ccc4CNC(=O)[C@@H]4C[C@@H](O)CN4C(=O)[C@@H](c4cc(C)no4)C(C)C)CC3)nc3c(F)c(-c4cc(O)cc5ccccc45)c(Cl)cc23)CC1 [Compound 78, (2S,4R)-N-({2-[2-({1-[(2R)-2-{[6-chloro-8-fluoro-7-(3-hydroxynaphthalen-1-yl)-4-[4-(prop-2-enoyl)piperazin-1-yl]quinazolin-2-yl]oxy}propyl]piperidin-4-yl}oxy)ethoxy]-4-(4-methyl-1,3-thiazol-5-yl)phenyl}methyl)-4-hydroxy-1-[(2R)-3-methyl-2-(3-methyl-1,2-oxazol-5-yl)butanoyl]pyrrolidine-2-carboxamide]
> 1000 nM		C=CC(=O)N1CCN(c2nc(O[C@H](C)CN3CCC(OCCOCCOCCOCCOCCOc4cc(-c5scnc5C)ccc4CNC(=O)[C@@H]4C[C@@H](O)CN4C(=O)[C@H](c4cc(C)no4)C(C)C)CC3)nc3c(F)c(-c4cc(O)cc5ccccc45)c(Cl)cc23)CC1 [Compound 79, (2S,4R)-N-[(2-{[14-({1-[(2R)-2-{[6-chloro-8-fluoro-7-(3-hydroxynaphthalen-1-yl)-4-[4-(prop-2-enoyl)piperazin-1-yl]quinazolin-2-yl]oxy}propyl]piperidin-4-yl}oxy)-3,6,9,12-tetraoxatetradecan-1-yl]oxy}-4-(4-methyl-1,3-thiazol-5-yl)phenyl)methyl]-4-hydroxy-1-[(2S)-3-methyl-2-(3-methyl-1,2-oxazol-5-yl)butanoyl]pyrrolidine-2-carboxamide]
> 1000 nM	35 to 70%	C=CC(=O)N1CCN(c2nc(O[C@H](C)CN3CCC(OCCOCCOCCOCCOCCOc4cc(-c5scnc5C)ccc4CNC(=O)[C@@H]4C[C@@H](O)CN4C(=O)[C@@H](c4cc(C)no4)C(C)C)CC3)nc3c(F)c(-c4cc(O)cc5ccccc45)c(Cl)cc23)CC1 [Compound 80]
> 1000 nM		C=CC(=O)N1CCN(c2nc(OC[C@@H]3C[C@@H](OCCOCCOCCOCCOCCOCCOCC(=O)N[C@H](C(=O)N4C[C@H](O)C[C@H]4C(=O)N[C@@H](C)c4ccc(-c5scnc5C)cc4)C(C)(C)C)CN3C)nc3c2CCN(c2cccc4ccccc24)C3)C[C@@H]1CC#N [Compound 81, (2S,4R)-1-[(2S)-2-(20-{[(3R,5S)-5-[({4-[(3S)-3-(cyanomethyl)-4-(prop-2-enoyl)piperazin-1-yl]-7-(naphthalen-1-yl)-5H,6H,7H,8H-pyrido[3,4-d]pyrimidin-2-yl}oxy)methyl]-1-methylpyrrolidin-3-yl]oxy}-3,6,9,12,15,18-hexaoxaicosanamido)-3,3-dimethylbutanoyl]-4-hydroxy-N-[(1S)-1-[4-(4-methyl-1,3-thiazol-5-yl)phenyl]ethyl]pyrrolidine-2-carboxamide]
> 1000 nM		C=CC(=O)N1CCN(c2nc(O[C@H](C)CN3CCC(OCCOCCOCCOCCOCCOCCOCCOCCOCCOCCOCC(=O)N[C@H](C(=O)N4C[C@H](O)C[C@H]4C(=O)N[C@@H](C)c4ccc(-c5scnc5C)cc4)C(C)(C)C)CC3)nc3c(F)c(-c4cc(O)cc5ccccc45)c(Cl)cc23)CC1 [Compound 83, (2S,4R)-1-[(2S)-2-[32-({1-[(2R)-2-{[6-chloro-8-fluoro-7-(3-hydroxynaphthalen-1-yl)-4-[4-(prop-2-enoyl)piperazin-1-yl]quinazolin-2-yl]oxy}propyl]piperidin-4-yl}oxy)-3,6,9,12,15,18,21,24,27,30-decaoxadotriacontanamido]-3,3-dimethylbutanoyl]-4-hydroxy-N-[(1S)-1-[4-(4-methyl-1,3-thiazol-5-yl)phenyl]ethyl]pyrrolidine-2-carboxamide]
